Drawing on ChEMBL document CHEMBL1124462, “Synthesis, DNA binding, and biological evaluation of synthetic precursors and novel analogues of netropsin” (J Med Chem, 1989), this text covers MIC for 29 molecules.

The structures appear in SMILES notation. Converted amounts (≈) assume the structure as drawn.

This assay deals with Vaccinia virus. In words: Minimum inhibitory concentration required to reduce vaccinia virus induced cytopathogenicity by 50% in primary rabbit kidney cells (PRK). Particulars: Orthopoxvirus vaccinia. It counts as functional. (In general: Damage to the host cells serves as the signal in cytopathic effect assays.)
Consider `C[C@H](NC(=O)[C@H](C)NC(=O)[C@H](C)NC(=O)c1cc(NC(=O)c2cc(NC(=O)CNC(=N)N)cn2C)cn1C)C(=O)O`, for which the MIC is over 400 µg/mL.
Next, `Nc1ncnc2c1ncn2C[C@H](O)CO` [(S)-DHPA]: 70 µg/mL (≈ 335 µM).
In turn, `Nc1ncnc2c1ccn2[C@@H]1O[C@H](CO)[C@@H](O)[C@H]1O` [TUBERCIDIN] displayed an MIC of 0.07 µg/mL (≈ 0.263 µM).
On to `Cn1cc(NC(=O)c2cc(NC(=O)CNC(=N)N)cn2C)cc1C(=O)NCCCNCCCCN`, for which the MIC was over 200 µg/mL.
`Cn1cc([N+](=O)[O-])cc1C(=O)O` displayed an MIC of over 400 µg/mL.
Consider `COC(=O)c1cc(NC(=O)c2cc([N+](=O)[O-])cn2C)cn1C`, for which the MIC is over 10 µg/mL.
Next, `Cn1cc([N+](=O)[O-])cc1C(=O)NCCC(=N)N`: over 200 µg/mL.
For `CC(NC(=O)c1cc(NC(=O)c2cc([N+](=O)[O-])cn2C)cn1C)C(=O)NC(C)C(=O)OC(C)(C)C` (centres undefined), the MIC was over 100 µg/mL.
As for `NC(=O)c1ncn([C@@H]2O[C@H](CO)[C@@H](O)[C@H]2O)n1` [RIBAVIRIN], the MIC amounted to 2 µg/mL (≈ 8.19 µM).
Consider `Nc1nccc2c1ncn2[C@@H]1C[C@H](CO)[C@@H](O)[C@H]1O` [3-DEAZAARISTEROMYCIN A], for which the MIC turned out to be 2 µg/mL (≈ 7.57 µM).
On to `CC(NC(=O)c1cc(NC(=O)c2cc(NC(=O)CNC(=N)N)cn2C)cn1C)C(=O)OC(C)(C)C` (centres undefined), for which the MIC is 150 µg/mL (≈ 307 µM).
Consider `CC(NC(=O)C(C)NC(=O)c1cc(NC(=O)c2cc(NC(=O)CNC(=N)N)cn2C)cn1C)C(=O)O` (centres undefined), for which the MIC was over 400 µg/mL.
On to `C[C@H](NC(=O)c1cc(NC(=O)c2cc([N+](=O)[O-])cn2C)cn1C)C(=O)N[C@@H](C)C(=O)N[C@@H](C)C(=O)OC(C)(C)C`, for which the MIC was over 100 µg/mL.
Regarding `Cn1cc(NC(=O)c2cc([N+](=O)[O-])cn2C)cc1C(=O)NCCCNCCCCN`, the MIC is over 200 µg/mL.
`C[C@H](NC(=O)c1cc(NC(=O)c2cc(NC(=O)CNC(=N)N)cn2C)cn1C)C(=O)N[C@@H](C)C(=O)N[C@@H](C)C(=O)OC(C)(C)C` displayed an MIC of over 100 µg/mL.
For `Cn1c(C(=O)O)ccc1[N+](=O)[O-]`, the MIC was over 200 µg/mL.
Then `Cn1cc([N+](=O)[O-])cc1C(=O)NCCC#N`, with over 200 µg/mL.
In turn, `CC(NC(=O)c1cc(NC(=O)c2cc([N+](=O)[O-])cn2C)cn1C)C(=O)OC(C)(C)C` (centres undefined) returned an MIC of over 40 µg/mL.
For the molecule `Cn1cc(NC(=O)c2cc(NC(=O)CNC(=N)N)cn2C)cc1C(=O)NCCC(=N)N` [NETROPSIN], the MIC was found to be 70 µg/mL (≈ 163 µM).
`Cn1cc(NC(=O)CNC(=N)N)cc1C(=O)NCCCNCCCCN` returned an MIC of over 400 µg/mL.
In the case of `Cn1cc(NC(=O)c2cc([N+](=O)[O-])cn2C)cc1C(=O)NCCC#N`, the MIC is over 10 µg/mL.
In the case of `Cn1cc(NC(=O)c2cc([N+](=O)[O-])cn2C)cc1C(=O)O`, the MIC is over 400 µg/mL.
In turn, `Cn1c(C(=O)NCCC#N)ccc1[N+](=O)[O-]` had an MIC of over 200 µg/mL.
Take `CC(NC(=O)c1cc(NC(=O)c2cc(NC(=O)CNC(=N)N)cn2C)cn1C)C(=O)O` (centres undefined): the MIC is over 200 µg/mL.
`Cn1cc([N+](=O)[O-])cc1C(=O)NCCCNCCCCN`: the MIC is over 200 µg/mL.
Then `CC(NC(=O)c1cc(NC(=O)c2cc(NC(=O)CNC(=N)N)cn2C)cn1C)C(=O)NC(C)C(=O)OC(C)(C)C` (centres undefined), with over 200 µg/mL; and `Cn1cc(NC(=O)c2cc([N+](=O)[O-])cn2C)cc1C(=O)NCCC(=N)N`, with over 100 µg/mL; and `COC(=O)c1ccc([N+](=O)[O-])n1C`, with over 400 µg/mL.
The molecule `Cn1c(C(=O)NCCC(=N)N)ccc1[N+](=O)[O-]` showed an MIC of over 100 µg/mL.
